PMC7533037, “Purification, structural analysis, and stability of antioxidant peptides from purple wheat bran” (BMC Chemistry, 2020)
Residues, ends and D or L forms follow the SMILES beside them. No end group written: not given here.

Columns and labels:
pepsin = test: In vitro digestion stability, pepsin; assay type: in vitro ADME; conditions: simulated gastrointestinal digestion, compared with before digestion, peptide 0.5 mg/mL (TEAC), 1.0 mg/mL (superoxide), n = 3
Description: (§1) According to the main components of human gastrointestinal digestive juice and digestive environment, a human gastrointestinal digestion simulation system was established to study the antioxidant activity changes of peptides after digestion by human gastrointestinal digestion simulation system. The method was according to the previously reported by Jang et al..
(§2) Peptides 2 and 4 synthesized in this study might be better antioxidants than the other peptides because of their high resistance to superoxide anion radical and high TEACs (Fig. 5) (P < 0.05). The peptide concentrations for the determination of superoxide anion radical scavenging activity and TEAC in the stability study (3.5 and 3.6) were chosen to be 1.0 and 0.5 mg/mL, respectively, according to the experimental results.

[1] = Temperature stability of antioxidant activity; assay type: physicochemical; conditions: compared with the three other peptides; read-out superoxide scavenging and TEAC
Description: The antioxidant activities of purple wheat bran antioxidant peptides at different passivation temperatures for 60 min were studied. The detection method of antioxidant activities was shown in 2.4. Before the antioxidant activities were measured, the samples allowed to cool to room temperature (25 °C) and pH was adjusted to 7.0.
as §2

trypsin = test: In vitro digestion stability, trypsin; assay type: in vitro ADME; conditions: simulated gastrointestinal digestion, compared with before digestion, peptide 0.5 mg/mL (TEAC), 1.0 mg/mL (superoxide), n = 3
Description: as §1, §2

chymotrypsin = test: In vitro digestion stability, chymotrypsin; assay type: in vitro ADME; conditions: simulated gastrointestinal digestion, individually or continuously, compared with before digestion, peptide 0.5 mg/mL (TEAC), 1.0 mg/mL (superoxide), n = 3
Description: as §1, §2

[2] = Superoxide anion radical scavenging activity assay (pyrogallol autoxidation method); assay type: biochemical; conditions: synthesized peptides, Tris-HCl pH 8.3, 320 nm, n = 3
Description: Superoxide anion radical scavenging activity assay was measured using the pyrogallol autoxidation method with some modifications. Mix 1.6 mL of sample with an equal volume of 50 mM Tris–HCl buffer (pH 8.3). The mixture was incubated in a bath for 20 min, then 0.8 mL of 1.5 mM pyrogallic acid was added. Absorbance of the mixture was measured at 320 nm every 30 s for 5 min. For blank, 1.6 mL of Tris–HCl buffer was used instead of sample. Ascorbic acid and GSH were used as positive controls. Superoxide anion radical scavenging activity was calculated as: O2-clearancerate%=1-ΔODS/ΔODb×100%, Where,ΔODSandΔODb represented slope of absorbance line for sample and slope of absorbance line for blank.

[3] = Trolox equivalent antioxidant capacity (TEAC), ABTS radical scavenging; assay type: biochemical; conditions: synthesized peptides; PBS pH 7.4, 30 °C, 30 min, 734 nm; n = 3
Description: The experiment referred to methods of Costa and Xing and made appropriate modifications. This method used Trolox as the standard antioxidant and all reagents were prepared in 50 mmol/L phosphate buffered solution (pH 7.4). The specific operation was as follows: PBS (50 µL) solution (blank group), different concentrations of Trolox solution (standard control group) and sample solution to be tested (sample group) were added to a transparent 96-well microplate, and then 150 µL ABTS^+· was quickly added. The solution was shaken at 30 °C for 30 min and its absorbance was measured at 734 nm using a microplate scanning spectrophotometer (Multiskan FC, Thermo Fisher Scientific (Shanghai), China). ABTS radical scavenging activity was calculated as ABTS+·clearancerate%=1-ASample/ABlank×100

| Compound | TEAC and superoxide anion radical scavenging activity after digestion by pepsin (pepsin) | temperature stability (overall) [1] | TEAC and superoxide anion radical scavenging activity after digestion by trypsin (trypsin) | TEAC and superoxide anion radical scavenging activity after digestion by chymotrypsin (chymotrypsin) | IC50, superoxide anion radical scavenging [2] [µg/mL] | IC50, TEAC (ABTS radical scavenging) [3] [µg/mL] |
| --- | --- | --- | --- | --- | --- | --- |
| N[C@@H](Cc1c[nH]c2ccccc12)C(=O)N[C@@H](Cc1ccccc1)C(=O)O [peptide 5, Trp-Phe] (H-Trp-Phe-OH) | insignificant changes | – | – | significant reduction | – | – |
| CGFPGHC (cysteine pairing not given here) [peptide 1, antioxidant peptide identified in F4-4 of purple wheat bran protein hydrolysate, synthesized by Fmoc solid phase method] | insignificant changes | – | – | significant reduction | 2898 | 763 |

The next lines start with results.

| TEAC and superoxide anion radical scavenging activity after digestion by pepsin (pepsin) | temperature stability (overall) [1] | TEAC and superoxide anion radical scavenging activity after digestion by trypsin (trypsin) | TEAC and superoxide anion radical scavenging activity after digestion by chymotrypsin (chymotrypsin) | Compound | IC50, superoxide anion radical scavenging [2] [µg/mL] | IC50, TEAC (ABTS radical scavenging) [3] [µg/mL] |
| --- | --- | --- | --- | --- | --- | --- |
| remained at the same levels | better temperature stability | remained at the same levels | remained at the same levels | C[C@H](NC(=O)[C@@H](N)CCC(N)=O)C(=O)N[C@@H](CS)C(=O)O [peptide 2, Gln-Ala-Cys] (H-Gln-Ala-Cys-OH) | – | – |
| insignificant changes | – | significantly declined | significant reduction | N=C(N)NCCC[C@H](N)C(=O)N[C@@H](CC(N)=O)C(=O)N[C@@H](Cc1ccccc1)C(=O)O [peptide 3, Arg-Asn-Phe] (H-Arg-Asn-Phe-OH) | – | – |
| remained at the same levels | better temperature stability | remained at the same levels | remained at the same levels | N[C@@H](CO)C(=O)N[C@@H](CO)C(=O)N[C@@H](CS)C(=O)O [peptide 4, Ser-Ser-Cys] (H-Ser-Ser-Cys-OH) | – | – |
